Source: patent US20090068653A1, “BIOCHEMICAL AND GENETIC ANALYSIS FOR PREDICTION OF BREAST CANCER RISK” (priority 2006, published 2009)
Substitutions are numbered along the chain they refer to. Structures can show the parent of a compound that is named as a salt. Where two headings read alike, the source gives them in different places.

Key:
[1] = single oral doses; cited from earlier work
[2] = test system: incidence of breast cancer; conditions: large study of use to prevent and treat osteoporosis; cited from earlier work
[3] = test system: estrogen receptors; conditions: preclinical data; cited from earlier work
[4] = test system: renal cancer; conditions: hamster, in vivo; cited from earlier work
[5] = test system: CYP1B1 mRNA; conditions: primary cultures of normal human epidermal keratinocytes, 24-hour treatment; cited from earlier work
[6] = test system: renal DNA; conditions: in vivo; cited from earlier work
[7] = test system: DNA; conditions: cited from earlier work
[8] = test system: DNA; conditions: cited from earlier work; remark: listed apart in the source
[9] = test system: rat mammary carcinoma induced by dimethylbenzanthracene (DMBA); conditions: cited from earlier work
[10] = cited from earlier work; for time to steady state concentrations after initiation of therapy: in vivo; for average peak plasma concentration: single oral dose of 20 mg tamoxifen
[11] = test system: breast cancer incidence; conditions: women at increased risk of the disease; cited from earlier work
[12] = cited from earlier work
[13] = test system: CYP1B1; conditions: cited from earlier work
[14] = test system: CYP1A1
[15] = test system: COMT; conditions: cited from earlier work
[16] = 10 mg tamoxifen twice daily for 3 months, patients
[17] = 20 mg tamoxifen once daily for 3 months

For `O=C(c1ccc(OCCN2CCCCC2)cc1)c1c(-c2ccc(O)cc2)sc2cc(O)ccc12` [Raloxifene], the apparent oral clearance [1] is given as 44.1 L/kg per hour, the “incidence of breast cancer” value [2] is given as “reduce the incidence of breast cancer” and the “estrogen receptor action in uterine and breast tissues” value [3] is given as “estrogen antagonist”.

In the case of `C[C@]12CC[C@@H]3c4cc(O)c(O)cc4CC[C@H]3[C@@H]1CCC2=O` [2-OHE1], the “induction of renal cancer” value [4] is given as “not”.

In the case of `Clc1cc2c(cc1Cl)Oc1cc(Cl)c(Cl)cc1O2` [TCDD, 2,3,7,8-tetrachlorodibenzo-p-dioxin], the “increase of CYP1B1 mRNA levels” value [5] is listed as “approximately 100 fold”.

In the case of `C[C@]12CC[C@@H]3c4cc(O)c(O)cc4CC[C@H]3[C@@H]1CC[C@@H]2O` [2-OHE2], the “induction of renal cancer” value [4] is given as “not”, the “levels of oxidized base 8-hydroxy-deoxyguanosine, oxidative DNA damage” value (from here on “levels … oxidative DNA damage”) [6] is given as “did not cause oxidative DNA damage” and the DNA single-strand breaks [7] is given as “negligible effect”.

In the case of `C[C@]12CC[C@@H]3C4=C(CC[C@H]3[C@@H]1CCC2=O)C(=O)C(=O)C=C4` [E1-3,4Q], the “levels of depurinating DNA adducts” value [8] is given as “two to three orders of magnitude higher”.

For `CC/C(=C(\c1ccccc1)c1ccc(OCCN(C)C)cc1)c1ccccc1` [Tamoxifen, reference compound], the “induction of rat mammary carcinoma induced by DMBA” value ([9]; rat) is given as “inhibits”, the “regression of DMBA-induced tumors in situ” value ([9]; rats) is given as “causes the regression” and the “average steady-state plasma concentration” value [10, 16] is given as 120 ng/mL. The “average steady-state plasma concentration” value [10, 17] was 122 ng/mL, the “time to steady state concentrations after initiation of therapy” value [10] was “about 4 weeks” and the “average peak plasma concentration” value [10] was 40 ng/mL. The “time of peak plasma concentration after dosing” value ([10]; single oral dose of 20 mg) was “approximately 5 hours” and the “reduction of breast cancer incidence” value [11] was 49%.

In the case of `C[C@]12CC[C@@H]3c4ccc(O)c(O)c4CC[C@H]3[C@@H]1CCC2=O` [4-OHE1], the “induction of renal cancer” value [4] is given as “induced renal cancer” and the “levels … oxidative DNA damage” value [6] is given as “significantly increased”.

For `C[C@]12CC[C@@H]3C4=C(CC[C@H]3[C@@H]1CC[C@@H]2O)C(=O)C(=O)C=C4` [E2-3,4Q], the “levels of depurinating DNA adducts” value [8] is listed as “two to three orders of magnitude higher”.

For `C[C@]12CC[C@@H]3c4ccc(O)c(O)c4CC[C@H]3[C@@H]1CC[C@@H]2O` [4-OHE2], the “induction of renal cancer” value [4] is listed as “induced renal cancer”, the “levels … oxidative DNA damage” value [6] is listed as “significantly increased” and the DNA single-strand breaks [7] is listed as “induced DNA single-strand breaks”.

In the case of `O=C(c1ccc(OCCN2CCCCC2)cc1)c1c(-c2ccc(O)cc2)sc2cc(O)ccc12` [Raloxifene HCl, methanone, [6-hydroxy-2-(4-hydroxyphenyl)benzo[b]thien-3-yl]-[4-[2-(1-piperidinyl)ethoxy]phenyl]-hydrochloride], the solubility in water [12] is listed as “very slightly soluble”.

In the case of `CC/C(=C(\c1ccccc1)c1ccc(OCCNC)cc1)c1ccccc1` [N-desmethyl tamoxifen], the “average steady-state plasma concentration” value [10, 16] is given as 336 ng/mL, the “average steady-state plasma concentration” value [10, 17] is given as 353 ng/mL and the “time to steady state concentrations after initiation of therapy” value [10] is given as “about 8 weeks”. For the same molecule, the “average peak plasma concentration” value [10] was 15 ng/mL and the half-life ([10]; suggested by time to steady state) was “approximately 14 days”.

B1: 48Gly-119Ala-432Val-453Asn: CYP1B1 variant enzyme (protein, UniProt Q16678 1-543, looked up, variant R48G)
Cytochrome P450 1B1: MGTSLSPNDPWPLNPLSIQQTTLLLLLSVLATVHVGQRLLRQRRRQLGSAPPGPFAWPLIGNAAAVGQAAHLSFARLARRYGDVFQIRLGSCPIVVLNGERAIHQALVQQGSAFADRPAFASFRVVSGGRSMAFGHYSEHWKVQRRAAHSMMRNFFTRQPRSRQVLEGHVLSEARELVALLVRGSADGAFLDPRPLTVVAVANVMSAVCFGCRYSHDDPEFRELLSHNEEFGRTVGAGSLVDVMPWLQYFPNPVRTVFREFEQLNRNFSNFILDKFLRHCESLRPGAAPRDMMDAFILSAEKKAAGDSHGGGARLDLENVPATITDIFGASQDTLSTALQWLLLLFTRYPDVQTRVQAELDQVVGRDRLPCMGDQPNLPYVLAFLYEAMRFSSFVPVTIPHATTANTSVLGYHIPKDTVVFVNQWSVNHDPLKWPNPENFDPARFLDKDGLINKDLTSRVMIFSVGKRRCIGEELSKMQLFLFISILAHQCDFRANPNEPAKMNFSYGLTIKPKSFKVNVTLRESMELLDSAVQNLQAKETCQ
In the case of B1, the Km ([13]; reaction E2 → 2-OHE2, CYP1B1) is listed as 12 µM and the Km ([13]; reaction E2 → 4-OHE2, CYP1B1) is listed as 6.6 µM.

B2: 48Gly-119Ser-432Val-453Asn: CYP1B1 variant enzyme (protein, UniProt Q16678 1-543, looked up, variant R48G A119S)
Cytochrome P450 1B1: B1 Cytochrome P450 1B1 with A119S
In the case of B2, the Km ([13]; reaction E2 → 2-OHE2, CYP1B1) is listed as 13 µM and the Km ([13]; reaction E2 → 4-OHE2, CYP1B1) is listed as 5.5 µM.

B3: 48Gly-119Ala-432Val-453Ser: CYP1B1 variant enzyme (protein, UniProt Q16678 1-543, looked up, variant R48G N453S)
Cytochrome P450 1B1: B1 Cytochrome P450 1B1 with N453S
For B3, the Km ([13]; reaction E2 → 2-OHE2, CYP1B1) is given as 75 µM and the Km ([13]; reaction E2 → 4-OHE2, CYP1B1) is given as 28 µM.

B4: 48Arg-119Ser-432Val-453Ser: CYP1B1 variant enzyme (protein, UniProt Q16678 1-543, looked up, variant A119S N453S)
Cytochrome P450 1B1: B1 Cytochrome P450 1B1 with G48R, A119S, N453S
In the case of B4, the Km ([13]; reaction E2 → 2-OHE2, CYP1B1) is given as 36 µM and the Km ([13]; reaction E2 → 4-OHE2, CYP1B1) is given as 17 µM.

B5: 48Gly-119Ser-432Val-453Ser: CYP1B1 variant enzyme (protein, UniProt Q16678 1-543, looked up, variant R48G A119S N453S)
Cytochrome P450 1B1: B1 Cytochrome P450 1B1 with A119S, N453S
In the case of B5, the Km ([13]; reaction E2 → 2-OHE2, CYP1B1) is listed as 34 µM and the Km ([13]; reaction E2 → 4-OHE2, CYP1B1) is listed as 15 µM.

B6: 48Arg-119Ala-432Val-453Ser: CYP1B1 variant enzyme (protein, UniProt Q16678 1-543, looked up, variant N453S)
Cytochrome P450 1B1: B1 Cytochrome P450 1B1 with G48R, N453S
In the case of B6, the Km ([13]; reaction E2 → 2-OHE2, CYP1B1) is given as 49 µM and the Km ([13]; reaction E2 → 4-OHE2, CYP1B1) is given as 21 µM.

B7: 48Arg-119Ala-432Val-453Asn (wt): wild-type CYP1B1 enzyme (protein, UniProt Q16678 1-543, looked up)
Cytochrome P450 1B1: B1 Cytochrome P450 1B1 with G48R
For B7, the Km ([13]; reaction E2 → 2-OHE2, CYP1B1) is listed as 24 µM and the Km ([13]; reaction E2 → 4-OHE2, CYP1B1) is listed as 14 µM.

B8: 48Arg-119Ser-432Val-453Asn: CYP1B1 variant enzyme (protein, UniProt Q16678 1-543, looked up, variant A119S)
Cytochrome P450 1B1: B1 Cytochrome P450 1B1 with G48R, A119S
For B8, the Km ([13]; reaction E2 → 2-OHE2, CYP1B1) is listed as 19 µM and the Km ([13]; reaction E2 → 4-OHE2, CYP1B1) is listed as 9.3 µM.

B9: 461Thr-462Ile (wt*): purified recombinant wild-type CYP1A1 enzyme (protein, UniProt P04798 1-512, looked up)
Cytochrome P450 1A1: MLFPISMSATEFLLASVIFCLVFWVIRASRPQVPKGLKNPPGPWGWPLIGHMLTLGKNPHLALSRMSQQYGDVLQIRIGSTPVVVLSGLDTIRQALVRQGDDFKGRPDLYTFTLISNGQSMSFSPDSGPVWAARRRLAQNGLKSFSIASDPASSTSCYLEEHVSKEAEVLISTLQELMAGPGHFNPYRYVVVSVTNVICAICFGRRYDHNHQELLSLVNLNNNFGEVVGSGNPADFIPILRYLPNPSLNAFKDLNEKFYSFMQKMVKEHYKTFEKGHIRDITDSLIEHCQEKQLDENANVQLSDEKIINIVLDLFGAGFDTVTTAISWSLMYLVMNPRVQRKIQEELDTVIGRSRRPRLSDRSHLPYMEAFILETFRHSSFVPFTIPHSTTRDTSLKGFYIPKGRCVFVNQWQINHDQKLWVNPSEFLPERFLTPDGAIDKVLSEKVIIFGMGKRKCIGETIARWEVFLFLAILLQRVEFSVPLGVKVDMTPIYGLTMKHACCEHFQMQLRS
For B9, the Km [14] was 17 µM.

B10: 461Asn-462Ile: purified recombinant CYP1A1 variant 461Thr→Asn (protein, UniProt P04798 1-512, looked up, variant T461N)
Cytochrome P450 1A1: B9 Cytochrome P450 1A1 with T461N
In the case of B10, the Km [14] is reported as 23 µM.

B11: 461Asn-462Val: purified recombinant CYP1A1 variant 461Asn-462Val (protein, UniProt P04798 1-512, looked up, variant T461N I462V)
Cytochrome P450 1A1: B9 Cytochrome P450 1A1 with T461N, I462V
For B11, the Km [14] was 23 µM.

B12: 461Thr-462Val: purified recombinant CYP1A1 variant 462Ile→Val (protein, UniProt P04798 1-512, looked up, variant I462V)
Cytochrome P450 1A1: B9 Cytochrome P450 1A1 with I462V
Work on B12 yielded a Km [14] of 18 µM.

B13: 108Val (wt): wild-type COMT enzyme (protein, UniProt P21964 1-271, looked up)
Catechol O-methyltransferase: MPEAPPLLLAAVLLGLVLLVVLLLLLRHWGWGLCLIGWNEFILQPIHNLLMGDTKEQRILNHVLQHAEPGNAQSVLEAIDTYCEQKEWAMNVGDKKGKIVDAVIQEHQPSVLLELGAYCGYSAVRMARLLSPGARLITIEINPDCAAITQRMVDFAGVKDKVTLVVGASQDIIPQLKKKYDVDTLDMVFLDHWKDRYLPDTLLLEECGLLRKGTVLLADNVICPGAPDFLAHVRGSSCFECTHYQSFLEYREVVDGLEKAIYKGPGSEAGP
For B13, the Km ([15]; reaction 2-OHE2 → 2-MeOE2, COMT) is listed as 117 µM, the Km ([15]; reaction 2-OHE2 → 2-OH-3-MeOE2, COMT) is listed as 51 µM and the Km ([15]; reaction 4-OHE2 → 4-MeOE2, COMT) is listed as 24 µM.
